Test results taken from ChEMBL document CHEMBL3085750, “Discovery of 2-methylpyridine-based biaryl amides as γ-secretase modulators for the treatment of Alzheimer's disease” (Bioorg Med Chem Lett, 2013).

Experiments:
Gamma-secretase = assay: Modulation of gamma-secretase in HEK293 cells expressing guinea pig Swedish mutant SFV-APP695sw assessed as inhibition of amyloid beta-42 production after 16 to 18 hrs by HTRF assay; assay type: cell-based, Homo sapiens
Cytochrome P450 2D6 = Cytochrome P450 2D6 (Homo sapiens, UniProt P10635); assay: Inhibition of CYP2D6 (unknown origin) after 10 mins; assay type: ADME
Chain of Cytochrome P450 2D6 (P10635 whole entry): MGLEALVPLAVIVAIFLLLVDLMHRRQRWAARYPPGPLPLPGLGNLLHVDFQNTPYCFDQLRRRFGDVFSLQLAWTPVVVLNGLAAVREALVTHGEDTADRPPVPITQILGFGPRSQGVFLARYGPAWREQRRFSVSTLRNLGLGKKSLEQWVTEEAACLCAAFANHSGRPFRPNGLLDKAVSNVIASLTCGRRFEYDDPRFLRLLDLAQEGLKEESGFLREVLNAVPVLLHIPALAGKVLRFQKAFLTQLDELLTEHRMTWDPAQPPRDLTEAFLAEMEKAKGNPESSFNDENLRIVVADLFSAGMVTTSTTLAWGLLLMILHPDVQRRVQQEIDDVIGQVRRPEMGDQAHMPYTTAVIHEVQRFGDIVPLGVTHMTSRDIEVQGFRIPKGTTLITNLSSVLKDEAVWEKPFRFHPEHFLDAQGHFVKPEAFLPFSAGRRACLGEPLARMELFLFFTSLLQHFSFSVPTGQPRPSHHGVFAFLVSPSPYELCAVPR

[1] = Metabolic stability in rat liver microsomes at 1 uM after 30 mins; assay type: ADME; settings: read-out: Stability
[2] = Metabolic stability in human liver microsomes at 1 uM after 30 mins; assay type: ADME; settings: read-out: Stability
Cytochrome P450 3A4 = Cytochrome P450 3A4 (Homo sapiens, UniProt P08684); assay: Inhibition of CYP3A4 (unknown origin) after 5 mins; assay type: ADME
Chain of Cytochrome P450 3A4 (P08684 whole entry): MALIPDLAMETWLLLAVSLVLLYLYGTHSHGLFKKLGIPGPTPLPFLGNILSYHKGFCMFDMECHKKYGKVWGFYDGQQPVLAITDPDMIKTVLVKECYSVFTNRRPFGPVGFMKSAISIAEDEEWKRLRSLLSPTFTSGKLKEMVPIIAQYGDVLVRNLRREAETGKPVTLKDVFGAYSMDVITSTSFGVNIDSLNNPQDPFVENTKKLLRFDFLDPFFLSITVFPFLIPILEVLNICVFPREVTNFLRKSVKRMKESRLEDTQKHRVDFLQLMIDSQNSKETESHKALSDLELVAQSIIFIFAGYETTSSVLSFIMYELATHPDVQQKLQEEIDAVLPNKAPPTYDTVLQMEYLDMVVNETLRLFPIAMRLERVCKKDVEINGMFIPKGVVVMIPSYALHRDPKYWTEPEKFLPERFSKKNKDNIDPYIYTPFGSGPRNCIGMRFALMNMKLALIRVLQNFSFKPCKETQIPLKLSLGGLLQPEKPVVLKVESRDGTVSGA

Compound | IC50 (Gamma-secretase) [nM] | other results
O=S(=O)(Nc1ccc(-c2ncccn2)cc1)c1cc(Cl)cc(Cl)c1 | > 10000 | IC50 (Cytochrome P450 2D6): > 27000 nM; microsomal CLint at 1 µM [1]: > 399 µL/min/mg; microsomal CLint at 1 µM [2]: > 399 µL/min/mg; IC50 (Cytochrome P450 3A4): 16200 nM
COc1cc(NC(=O)[C@H](C)c2cc(C(F)(F)F)cc(C(F)(F)F)c2)ccc1-c1ccnc(C)c1 | 500 | –
Cc1cc(-c2ccc(NC(=O)C(C)c3cccc(-c4ccccn4)c3)cc2)ccn1 (centres undefined) | > 10000 | –
CCCC(C(=O)Nc1ccc(-c2ccnc(C)c2)cc1)c1cccc(C)c1 (centres undefined) | 540 | –
COc1ccc(-c2cccc(C(C)C(=O)Nc3ccc(-c4ccnc(C)c4)cc3)c2)cc1 (centres undefined) | 150 | –
Cc1cccc(C(CC(C)C)C(=O)Nc2ccc(-c3ccnc(C)c3)cc2)c1 (single isomer, unassigned; isomer 1) | 180 | –
Cc1cc(-c2ccc(NC(=O)C(C)c3cccc(-c4cccc(C#N)c4)c3)cc2)ccn1 (centres undefined) | 220 | –
CC(=O)c1ccc(-c2cccc(C(C)C(=O)Nc3ccc(-c4ccnc(C)c4)cc3)c2)cc1 (centres undefined) | 140 | –
Cc1cc(-c2ccc(N(C)C(=O)Cc3cc(C(F)(F)F)cc(C(F)(F)F)c3)cc2)ccn1 | > 10000 | –
Cc1cc(-c2ccc(C(=O)NCCc3ccc(Cl)cc3)cc2)ccn1 | 2120 | –
COc1cc(NS(=O)(=O)c2cc(C(F)(F)F)cc(C(F)(F)F)c2)ccc1-c1ccnc(C)c1 | 530 | –
CCCCC(C(=O)Nc1ccc(-c2ccnc(C)c2)cc1)c1cccc(C)c1 (centres undefined) | 490 | –
Cc1cc(-c2ccc(NC(=O)C(C)c3cccc(N4CCN(C)CC4)c3)cc2)ccn1 (centres undefined) | > 10000 | –
Cc1cccc(C(C)C(=O)Nc2ccc(-c3ccnc(C)c3)cc2)c1 (centres undefined) | 540 | –
Cc1cc(-c2ccc(NC(=O)C(C)c3cc(C(F)(F)F)cc(C(F)(F)F)n3)cc2)ccn1 (centres undefined) | > 10000 | –
Cc1cc(-c2ccc(NC(=O)C(C)c3cccc(-c4ccc(N(C)C)nc4)c3)cc2)ccn1 (centres undefined) | 170 | –
COc1cc(-c2ccnc(C)c2)ccc1NS(=O)(=O)c1cc(C(F)(F)F)cc(C(F)(F)F)c1 | 1830 | IC50 (Cytochrome P450 2D6): 1900 nM; microsomal CLint at 1 µM [1]: > 399 µL/min/mg; microsomal CLint at 1 µM [2]: 306 µL/min/mg; IC50 (Cytochrome P450 3A4): 2200 nM
Cc1cc(-c2ccc(NC(=O)C(O)c3cc(C(F)(F)F)cc(C(F)(F)F)c3)cc2)ccn1 (centres undefined) | 2130 | –
Cc1cc(-c2ccc(NC(=O)C(C)c3cccc(-c4ccc(C#N)cc4)c3)cc2)ccn1 (centres undefined) | 250 | –
Cc1cccc(C(CCCO)C(=O)Nc2ccc(-c3ccnc(C)c3)cc2)c1 (centres undefined) | > 10000 | –
CNc1ccc(-c2cccc(C(C)C(=O)Nc3ccc(-c4ccnc(C)c4)cc3)c2)cn1 (centres undefined) | 930 | –
O=S(=O)(Nc1ccc(-c2cc[nH]n2)cc1)c1cc(Cl)cc(Cl)c1 | > 10000 | IC50 (Cytochrome P450 2D6): 11800 nM; microsomal CLint at 1 µM [1]: > 399 µL/min/mg; microsomal CLint at 1 µM [2]: 384 µL/min/mg; IC50 (Cytochrome P450 3A4): 15300 nM

Compound | IC50 (Gamma-secretase) [nM] | other results
CCC(C(=O)Nc1ccc(-c2ccnc(C)c2)cc1)c1cccc(C)c1 (centres undefined) | 1050 | –
Cc1cc(-c2ccc(NC(=O)C(C)c3cccc(N4CCN(c5ccccc5)CC4)c3)cc2)ccn1 (centres undefined) | 160 | –
Cc1cc(-c2ccc(NC(=O)[C@H](C)c3cccc(-c4ccc(N5CCOCC5)cc4)c3)cc2)ccn1 | 31 | –
COc1cc(NS(=O)(=O)c2cc(Cl)cc(Cl)c2)ccc1-n1cnc(C)c1 | 1060 | –
Cc1cc(-c2ccc(NC(=O)Cc3cc(C(F)(F)F)cc(C(F)(F)F)c3)cc2)ccn1 | 460 | IC50 (Cytochrome P450 2D6): 13000 nM; microsomal CLint at 1 µM [1]: 22 µL/min/mg; microsomal CLint at 1 µM [2]: 18 µL/min/mg; IC50 (Cytochrome P450 3A4): > 27000 nM
Cc1cc(-c2ccc(NC(=O)C(C)c3cccc(-c4ccc(N(C)C)cc4)c3)cc2)ccn1 (centres undefined) | 120 | –
Cc1cc(-c2ccc(NC(=O)C(C)(C)c3cc(C(F)(F)F)cc(C(F)(F)F)c3)cc2)ccn1 | > 10000 | –
O=S(=O)(Nc1ccc(-c2cncnc2)cc1)c1cc(Cl)cc(Cl)c1 | > 10000 | IC50 (Cytochrome P450 2D6): 7200 nM; microsomal CLint at 1 µM [1]: > 399 µL/min/mg; microsomal CLint at 1 µM [2]: 45 µL/min/mg; IC50 (Cytochrome P450 3A4): 3500 nM
Cc1cc(C)cc(C(C)C(=O)Nc2ccc(-c3ccnc(C)c3)cc2)c1 (centres undefined) | 570 | –
Cc1nccn1-c1ccc(NS(=O)(=O)c2cc(Cl)cc(Cl)c2)cc1 | 9400 | IC50 (Cytochrome P450 2D6): > 27000 nM; microsomal CLint at 1 µM [1]: 113 µL/min/mg; microsomal CLint at 1 µM [2]: 22 µL/min/mg; IC50 (Cytochrome P450 3A4): > 27000 nM
Cc1cc(-c2ccc(C(=O)NC(C)c3cc(C(F)(F)F)cc(C(F)(F)F)c3)cc2)ccn1 (centres undefined) | > 10000 | –
Cc1cc(-c2ccc(NC(=O)C(C)c3cccc(-c4ccc(NC(C)C)nc4)c3)cc2)ccn1 (centres undefined) | 180 | –
CCc1cc(-c2ccc(NS(=O)(=O)c3cc(C(F)(F)F)cc(C(F)(F)F)c3)cc2)ccn1 | 210 | IC50 (Cytochrome P450 2D6): 700 nM; microsomal CLint at 1 µM [1]: 324 µL/min/mg; microsomal CLint at 1 µM [2]: 371 µL/min/mg; IC50 (Cytochrome P450 3A4): 12200 nM
CCCc1cc(-c2ccc(NS(=O)(=O)c3cc(C(F)(F)F)cc(C(F)(F)F)c3)cc2)ccn1 | 4060 | IC50 (Cytochrome P450 2D6): 1800 nM; microsomal CLint at 1 µM [1]: 122 µL/min/mg; microsomal CLint at 1 µM [2]: 270 µL/min/mg; IC50 (Cytochrome P450 3A4): > 27000 nM
Cc1cc(-c2ccc(NC(=O)C(C)c3ccccc3)cc2)ccn1 (centres undefined) | 6000 | –
Cc1cc(-c2ccc(NC(=O)C(C)c3cccc(-c4ccncc4)c3)cc2)ccn1 (centres undefined) | 1200 | –
Cc1cc(-c2ccc(NC(=O)C(C)c3cccc(-c4ccc(C(=O)N(C)C)cc4)c3)cc2)ccn1 (centres undefined) | 260 | –
Cc1cc(-c2ccc(NC(=O)Nc3cc(C(F)(F)F)cc(C(F)(F)F)c3)cc2)ccn1 | 1110 | –
Cc1cc(-c2ccc(NC(=O)C(C)c3cccc(-c4cnc(N5CCOCC5)nc4)c3)cc2)ccn1 (centres undefined) | 650 | –
Cc1noc(-c2ccc(NS(=O)(=O)c3cc(Cl)cc(Cl)c3)cc2)n1 | > 10000 | IC50 (Cytochrome P450 2D6): > 27000 nM; microsomal CLint at 1 µM [1]: > 399 µL/min/mg; microsomal CLint at 1 µM [2]: > 399 µL/min/mg; IC50 (Cytochrome P450 3A4): > 27000 nM
Cc1cc(-c2cccc(NC(=O)Cc3cc(C(F)(F)F)cc(C(F)(F)F)c3)c2)ccn1 | > 10000 | –
Cc1cc(-c2ccc(NC(=O)C(C)c3cccc(-c4ccccc4)c3)cc2)ccn1 (centres undefined) | 660 | –

Compound | IC50 (Gamma-secretase) [nM] | other results
COc1cc(C(=O)NCCC(c2ccccc2)c2ccccc2)ccc1-n1cnc(C)c1 | 320 | microsomal CLint at 1 µM [1]: > 399 µL/min/mg
Cc1cc(-c2ccc(NC(=O)C(C)c3cccc(-c4ccccc4C#N)c3)cc2)ccn1 (centres undefined) | 570 | –
Cc1cc(-c2ccc(NC(=O)Cc3cc(C(F)(F)F)cc(C(F)(F)F)c3)cn2)ccn1 | 1350 | –
Cc1cc(-c2ccc(/C=C3\CCCN([C@@H](C)c4ccc(F)cc4)C3=O)cc2)ccn1 | 1530 | –
Cc1cc(-c2ccc(NC(=O)C(CC(C)C)c3cc(C(F)(F)F)cc(C(F)(F)F)c3)cc2)ccn1 (centres undefined) | 820 | –
Cc1cccc(C(CC(C)C)C(=O)Nc2ccc(-c3ccnc(C)c3)cc2)c1 (stereo in doubt; 50) | 170 | –
Cc1cc(-c2ccc(NC(=O)C(C)c3cccc(-c4cccnc4)c3)cc2)ccn1 (centres undefined) | 1290 | –
Cc1cc(-c2ccc(NC(=O)Cc3cc(C(F)(F)F)cc(C(F)(F)F)c3)nc2)ccn1 | > 10000 | –
Cc1cc(-c2ccc(NC(=O)C(C)c3cc(C#N)cc(C(F)(F)F)c3)cc2)ccn1 (centres undefined) | 7000 | –
COc1cc(NS(=O)(=O)c2ccc(Cl)c(Cl)c2)ccc1-n1cnc(C)c1 | 900 | –
Cc1cccc(C(CC(C)C)C(=O)Nc2ccc(-c3ccnc(C)c3)cc2)c1 (single isomer, unassigned; isomer 2) | 1380 | –
Cc1cc(-c2ccc(NC(=O)[C@@H](C)c3cccc(-c4ccc(N5CCOCC5)cc4)c3)cc2)ccn1 | 70 | –
Cc1cc(-c2ccc(NC(=O)C(C)c3cccc(-c4ccc(N5CCOCC5)nc4)c3)cc2)ccn1 (centres undefined) | 150 | –
Cc1cc(-c2ccc(NC(=O)C(C)c3cccc(N4CCOCC4)c3)cc2)ccn1 (centres undefined) | 4800 | –
O=S(=O)(Nc1ccc(-c2ccco2)cc1)c1cc(Cl)cc(Cl)c1 | > 10000 | IC50 (Cytochrome P450 2D6): > 27000 nM; microsomal CLint at 1 µM [1]: > 399 µL/min/mg; microsomal CLint at 1 µM [2]: > 399 µL/min/mg
COc1cc(NC(=O)Cc2cc(C(F)(F)F)cc(C(F)(F)F)c2)ccc1-n1cnc(C)c1 | 1450 | –
C=Cc1cc(-c2ccc(NS(=O)(=O)c3cc(C(F)(F)F)cc(C(F)(F)F)c3)cc2)ccn1 | 1260 | IC50 (Cytochrome P450 2D6): 700 nM; microsomal CLint at 1 µM [1]: 169 µL/min/mg; microsomal CLint at 1 µM [2]: 193 µL/min/mg; IC50 (Cytochrome P450 3A4): 4500 nM
Cc1cc(-c2ccc(NC(=O)C(C)c3cccc(-c4ccc(C(=O)O)cc4)c3)cc2)ccn1 (centres undefined) | > 10000 | –
Cc1cccc(CC(=O)Nc2ccc(-c3ccnc(C)c3)cc2)c1 | 2780 | –
Cc1cc(-c2ccc(NC(=O)C(C)c3cccc(-c4ccc(N5CCOCC5)cc4)c3)cc2)ccn1 (centres undefined) | 70 | –
COc1cc(C(=O)NCCc2ccc(Cl)cc2)ccc1-n1cnc(C)c1 | 420 | –
